In patent US7164021B2, “Opiate analogs selective for the δ-opioid receptor” (The Curators of The University of Missouri, priority 2002, dated 2007):

Columns and labels:
κ receptor [1] = molecular target: κ receptor (Homo sapiens, UniProt P41145); test: Competitive analysis vs 3H-Bremazocine, κ receptor; format: binding; conditions: reference compound 3H-Bremazocine
mu receptor = mu receptor (Homo sapiens, UniProt P35372); test: Competitive analysis vs 3H-Bremazocine, mu receptor; format: binding
delta receptor = delta receptor (Homo sapiens, UniProt P41143); test: Competitive analysis vs 3H-Bremazocine, delta receptor; format: binding
κ receptor [2] = molecular target: κ receptor (Mus musculus, UniProt P33534); conditions: experimental value of the reference opioid; cited from earlier work
δ receptor = δ receptor (Mus musculus, UniProt P32300); conditions: experimental value of the reference opioid; cited from earlier work
μ receptor = μ receptor (Rattus norvegicus, UniProt P33535); conditions: experimental value of the reference opioid; cited from earlier work

Structure (SMILES) | % Inhibition κ (κ receptor [1]) [%] | % Inhibition μ (mu receptor) [%] | Ki (mu receptor; competitive analysis, 1.64 nM 3H-Bremazocine, dose response curve FIG. 7B, read-out: Representative Ki μ) [µM] | Ki (delta receptor; competitive analysis, 1.64 nM 3H-Bremazocine, dose response curve FIG. 7A, read-out: Representative Ki δ (delta binding affinity)) [µM] | % Inhibition δ (delta receptor; competitive analysis, reference compound 3H-Bremazocine) [%] | delta/mu selectivity (delta receptor; ratio delta vs mu binding) | experimental affinity κ receptor (value in parenthesis) (κ receptor [2]) | experimental affinity δ receptor (value in parenthesis) (δ receptor) | experimental affinity μ receptor (value in parenthesis) (μ receptor)
Oc1cccc(-n2cnnc2-c2cccc(-c3ccccc3)c2)c1 [DST3-2] | 42 | 84 | 1 | 0.14 | 84 | 10/1 | – | – | –
Oc1ccc2c3c1O[C@H]1c4[nH]c5ccccc5c4C[C@@]4(O)[C@@H](C2)N(CC2CC2)CC[C@]314 [NTI, naltrindole] | – | – | – | – | – | – | 7.18 | 10.70 | –
CN1CC[C@]23c4c5ccc(O)c4OC2C(=O)C2(Cc4ccccc4C2)C[C@@]3(O)C1C5 (some centres unmarked) [SIOM, spiroindanyloxymorphone] | – | – | – | – | – | – | < 6.00 | 8.77 | 7.48
